Laboratory results published in patent US10077264B2, “Derivatives and methods of treating hepatitis B infections” (Novira Therapeutics, Inc., priority 2014, dated 2018).

system: HBV replication in HepG2.2.15 cells; test: HBV replication inhibition assay (BDNA assay); type: cell-based; details: HepG2.2.15 cells, 6 days, encapsidated HBV DNA in supernatant; read-out: Activity in BDNA-assay (EC50)
Source text: HBV replication inhibition by the compounds of this invention could be determined in cells infected or transfected with HBV, or cells with stably integrated HBV, such as HepG2.2.15 cells (Sells et al. 1987). In this example, HepG2.2.15 cells were maintained in cell culture medium containing 10% fetal bovine serum (FBS), Geneticin, L-glutamine, penicillin and streptomycin. HepG2.2.15 cells could be seeded in 96-well plates at a density of 40,000 cells/well and be treated with serially diluted compounds at a final DMSO concentration of 0.5% either alone or in combination by adding drugs in a checker box format. Cells were incubated with compounds for three days, after which medium was removed and fresh medium containing compounds was added to cells and incubated for another three days. At day 6, supernatant was removed and treated with DNase at 37° C. for 60 minutes, followed by enzyme inactivation at 75° C. for 15 minutes. Encapsidated HBV DNA was released from the virions and covalently linked HBV polymerase by incubating in lysis buffer (Affymetrix QS0010) containing […] proteinase K at 50° C. for 40 minutes. HBV DNA was denatured by addition of 0.2 M NaOH and detected using a branched DNA (BDNA) QuantiGene assay kit according to manufacturer recommendation (Affymetrix). HBV DNA levels could also be quantified using qPCR, based on amplification of encapsidated HBV DNA extraction with QuickExtraction Solution (Epicentre Biotechnologies) and amplification of HBV DNA using HBV specific PCR probes that can hybridize to HBV DNA and a fluorescently labeled probe for quantitation. In addition, cell viability of HepG2.2.15 cells incubated with test compounds alone or in combination was determined by using CellTitre-Glo reagent according to the manufacturer protocol (Promega). The mean background signal from wells containing only culture medium was subtracted from all other samples, and percent inhibition at each compound concentration was calculated by normalizing to signals from HepG2.2.15 cells treated with 0.5% DMSO using equation E1. % inhibition=(DMSOave−Xi)/DMSOave×100% E1: • where DMSOave is the mean signal calculated from the wells that were treated with DMSO control (0% inhibition control) and Xi is the signal measured from the individual wells. EC50 values, effective concentrations that achieved 50% inhibitory effect, were determined by non-linear fitting using Graphpad Prism software (San Diego, Calif.) and equation E2 Y=Ymin+(Ymax−Ymin)/(1+10(Log EC50−X)×HillSlope) E2: • where Y represents percent inhibition values and X represents the logarithm of compound concentrations.
Selected compounds of the invention were assayed in the HBV replication assay (BDNA assay), as described above and a representative group of these active compounds is shown in Table 3.

SMILES	EC50 [nM]
CC1Cc2[nH]nc(-c3ccccc3)c2CN1C(=O)Nc1cccc(Cl)c1 (single isomer, unassigned) [317 (E1), N-(3-chlorophenyl)-6-methyl-3-phenyl-1,4,6,7-tetrahydropyrazolo[4,3-c]pyridine-5-carboxamide]	10 to 100
CC1Cc2[nH]nc(-c3ccccc3)c2CN1C(=O)Nc1cccc(Cl)c1 (single isomer, unassigned) [317 (E2), N-(3-chlorophenyl)-6-methyl-3-phenyl-1,4,6,7-tetrahydropyrazolo[4,3-c]pyridine-5-carboxamide]	100 to 500
CC1c2c(-c3ccccc3)n[nH]c2CCN1C(=O)Nc1cccc(Cl)c1 (single isomer, unassigned) [318 (E2), N-(3-chlorophenyl)-4-methyl-3-phenyl-1,4,6,7-tetrahydropyrazolo[4,3-c]pyridine-5-carboxamide]	100 to 500
CC1Cc2[nH]nc(-c3cscn3)c2CN1C(=O)Nc1ccc(F)c(Cl)c1 (stereo not shown) [917 E2]	10 to 100
CC1Cc2[nH]nc(-c3cscn3)c2CN1C(=O)Nc1cccc(Br)c1 (stereo not shown) [918 E2]	10 to 100
CC1Cc2[nH]nc(-c3cscn3)c2CN1C(=O)Nc1ccc(F)c(Br)c1 (stereo not shown) [919 E2]	10 to 100
CC1Cc2[nH]nc(-c3cscn3)c2CN1C(=O)Nc1cccc(Br)c1F (stereo not shown) [920 E2]	10 to 100
CC1Cc2[nH]nc(-c3cscn3)c2CN1C(=O)Nc1ccnc(Br)c1F (stereo not shown) [921 E2]	10 to 100
CC1Cc2[nH]nc(-c3cscn3)c2CN1C(=O)Nc1ccc(F)c(C#N)c1 (stereo not shown) [922 E2]	10 to 100
Cc1cccc(NC(=O)N2Cc3c(-c4cscn4)n[nH]c3CC2C)c1 (stereo not shown) [923 E2]	10 to 100
Cc1cc(NC(=O)N2Cc3c(-c4cscn4)n[nH]c3CC2C)ccc1F (stereo not shown) [924 E2]	10 to 100

same assay, conditions: Hepatitis B virus, 144 h; HepG2.2.15 cells, 10 μM, 6 days, encapsidated HBV DNA in supernatant; read-out: Activity in BDNA-assay (activity at 10 μM)

SMILES	inhibition at 10 µM [%]
O=C(C1C[C@H]1c1ccccc1)N1CCc2[nH]nc(-c3ccccc3)c2C1 (stereo in doubt) [Compound 030, (2-phenylcyclopropyl)-(3-phenyl-2,4,6,7-tetrahydropyrazolo[4,3-c]pyridin-5-yl)methanone]	> 50
O=C(COc1cncnc1)N1CCc2[nH]nc(-c3ccccc3)c2C1 [Compound 001]	> 50
CC(OC(=O)N1CCc2[nH]nc(-c3ccccc3)c2C1)c1ccccc1 (stereo not shown) [Compound 016, 1-phenylethyl 3-phenyl-1,4,6,7-tetrahydropyrazolo[4,3-c]pyridine-5-carboxylate]	> 50
O=C(NCc1ccccc1)N1CCc2[nH]nc(-c3ccccc3)c2C1 [Compound 017, N-benzyl-3-phenyl-1,4,6,7-tetrahydropyrazolo[4,3-c]pyridine-5-carboxamide]	> 50
O=C(OCc1ccccc1)N1CCc2[nH]nc(-c3ccccc3)c2C1 [Compound 024, benzyl 3-phenyl-1,4,6,7-tetrahydropyrazolo[4,3-c]pyridine-5-carboxylate]	> 50
O=C(CCc1ccccc1)N1CCc2[nH]nc(-c3ccccc3)c2C1 [Compound 027, 3-phenyl-1-(3-phenyl-1,4,6,7-tetrahydropyrazolo[4,3-c]pyridin-5-yl)propan-1-one]	> 50
O=C(/C=C/c1ccccc1)N1CCc2[nH]nc(-c3ccccc3)c2C1 [Compound 057, (E)-3-phenyl-1-(3-phenyl-1,4,6,7-tetrahydropyrazolo[4,3-c]pyridin-5-yl)prop-2-en-1-one]	> 50
O=C(Nc1ccc(Cl)cc1)N1CCc2[nH]nc(-c3ccccc3)c2C1 [Compound 113]	> 50
O=C(COc1ccccc1F)N1CCc2[nH]nc(-c3ccccc3)c2C1 [Compound 142]	> 50
O=C(COc1cccc(F)c1)N1CCc2[nH]nc(-c3ccccc3)c2C1 [Compound 143]	> 50
O=C(COc1ccc(F)cc1)N1CCc2[nH]nc(-c3ccccc3)c2C1 [Compound 144]	> 50
Cc1cccc(OCC(=O)N2CCc3[nH]nc(-c4ccccc4)c3C2)c1 [Compound 145]	> 50
Cc1ccc(OCC(=O)N2CCc3[nH]nc(-c4ccccc4)c3C2)cc1 [Compound 147]	> 50
O=C(COc1ccccc1Cl)N1CCc2[nH]nc(-c3ccccc3)c2C1 [Compound 148]	> 50
O=C(COc1cccc(Cl)c1)N1CCc2[nH]nc(-c3ccccc3)c2C1 [Compound 149]	> 50
O=C(COc1ccc(Cl)cc1)N1CCc2[nH]nc(-c3ccccc3)c2C1 [Compound 150]	> 50
N#Cc1ccccc1OCC(=O)N1CCc2[nH]nc(-c3ccccc3)c2C1 [Compound 154]	> 50
N#Cc1ccc(OCC(=O)N2CCc3[nH]nc(-c4ccccc4)c3C2)cc1 [Compound 156]	> 50
O=C(COc1ccccc1C(F)(F)F)N1CCc2[nH]nc(-c3ccccc3)c2C1 [Compound 163]	> 50
O=C(COc1cccc(C(F)(F)F)c1)N1CCc2[nH]nc(-c3ccccc3)c2C1 [Compound 164]	> 50
O=C(COc1ccc(C(F)(F)F)cc1)N1CCc2[nH]nc(-c3ccccc3)c2C1 [Compound 165]	> 50
O=C(C1COc2ccccc2O1)N1CCc2[nH]nc(-c3ccccc3)c2C1 (stereo not shown) [Compound 171]	> 50
N#Cc1ccc(Cl)cc1NC(=O)N1CCc2[nH]nc(-c3ccccc3)c2C1 [Compound 201]	> 50
O=C(Nc1ccc(Br)c(Cl)c1)N1CCc2[nH]nc(-c3ccccc3)c2C1 [Compound 204]	> 50

same assay, conditions: Hepatitis B virus, HepG2.2.15, 144 h, HepG2.2.15 cells, 6 days, encapsidated HBV DNA in supernatant; read-out: Activity in BDNA-assay (EC50)

SMILES	EC50 [nM]
CC1c2c(-c3ccccc3)n[nH]c2CCN1C(=O)Nc1cccc(Cl)c1 (single isomer, unassigned) [318 (E1), N-(3-chlorophenyl)-4-methyl-3-phenyl-1,4,6,7-tetrahydropyrazolo[4,3-c]pyridine-5-carboxamide]	100 to 500
CC1Cc2[nH]nc(-c3cscn3)c2CN1C(=O)Nc1ccc(F)c(Cl)c1 (stereo not shown) [917 E1, N-(3-chloro-4-fluoro-phenyl)-6-methyl-3-thiazol-4-yl-1,4,6,7-tetrahydropyrazolo[4,3-c]pyridine-5-carboxamide]	10 to 100
CC1Cc2[nH]nc(-c3cscn3)c2CN1C(=O)Nc1cccc(Br)c1 (stereo not shown) [918 E1]	10 to 100
CC1Cc2[nH]nc(-c3cscn3)c2CN1C(=O)Nc1ccc(F)c(Br)c1 (stereo not shown) [919 E1]	10 to 100
CC1Cc2[nH]nc(-c3cscn3)c2CN1C(=O)Nc1cccc(Br)c1F (stereo not shown) [920 E1]	10 to 100
CC1Cc2[nH]nc(-c3cscn3)c2CN1C(=O)Nc1ccnc(Br)c1F (stereo not shown) [921 E1]	10 to 100
CC1Cc2[nH]nc(-c3cscn3)c2CN1C(=O)Nc1ccc(F)c(C#N)c1 (stereo not shown) [922 E1]	10 to 100
Cc1cccc(NC(=O)N2Cc3c(-c4cscn4)n[nH]c3CC2C)c1 (stereo not shown) [923 E1]	10 to 100
Cc1cc(NC(=O)N2Cc3c(-c4cscn4)n[nH]c3CC2C)ccc1F (stereo not shown) [924 E1]	10 to 100
CC(Oc1ccccc1)C(=O)N1CCc2[nH]nc(-c3ccccc3)c2C1 (stereo not shown) [Compound 014, 2-phenoxy-1-(3-phenyl-1,4,6,7-tetrahydropyrazolo[4,3-c]pyridin-5-yl)propan-1-one]	1000 to 1500
O=C(Nc1cccc(Cl)c1)N1CCc2[nH]nc(-c3ccccc3)c2C1 [Compound 112]	10 to 100
O=C(Nc1ccc(F)c(Cl)c1)N1CCc2[nH]nc(-c3ccccc3)c2C1 [Compound 114]	10 to 100
O=C(Nc1cccc(Cl)c1Cl)N1CCc2[nH]nc(-c3ccccc3)c2C1 [Compound 190]	500 to 1000
O=C(Nc1cc(Cl)ccc1Cl)N1CCc2[nH]nc(-c3ccccc3)c2C1 [Compound 191]	500 to 1000
Cc1c(Cl)cccc1NC(=O)N1CCc2[nH]nc(-c3ccccc3)c2C1 [Compound 192]	100 to 500

same assay, conditions: Hepatitis B virus, HepG2.2.15, 144 h, read-out: Activity in BDNA-assay (EC50)

SMILES	EC50 [nM]
O=C(Nc1ccccc1)N1CCc2[nH]nc(-c3ccccc3)c2C1 [Compound 022, N,3-diphenyl-1,4,6,7-tetrahydropyrazolo[4,3-c]pyridine-5-carboxamide]	100 to 500

same assay, conditions: Hepatitis B virus, HepG2.2.15, 144 h, read-out: Activity in BDNA-assay (activity at 10 μM)

SMILES	inhibition at 10 µM [%]
O=C(Oc1ccccc1)N1CCc2[nH]nc(-c3ccccc3)c2C1 [Compound 021, phenyl3-phenyl-1,4,6,7-tetrahydropyrazolo[4,3-c]pyridine-5-carboxylate]	> 50
